For orientation: Ki means the equilibrium dissociation constant of an inhibitor or competing ligand from its target.

Molecules are shown by their SMILES. Structures can show the parent of a compound that is named as a salt.

The target of the first assay is T1, 5-HT1F receptor (Homo sapiens, UniProt P30939).
T1 sequence (P30939 1-366): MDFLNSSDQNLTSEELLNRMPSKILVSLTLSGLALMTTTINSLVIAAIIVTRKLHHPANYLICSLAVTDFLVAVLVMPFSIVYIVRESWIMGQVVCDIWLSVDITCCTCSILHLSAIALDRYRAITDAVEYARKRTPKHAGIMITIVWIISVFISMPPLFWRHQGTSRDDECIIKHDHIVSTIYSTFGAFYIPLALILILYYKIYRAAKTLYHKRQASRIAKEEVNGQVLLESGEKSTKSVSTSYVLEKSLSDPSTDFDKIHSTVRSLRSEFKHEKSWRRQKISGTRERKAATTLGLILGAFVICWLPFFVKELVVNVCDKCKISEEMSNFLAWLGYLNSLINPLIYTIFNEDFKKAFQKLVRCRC
As to the kind of experiment: biochemical. Particulars: Table I; displacement of 4.5-5.5 nM [3H]5-HT, 37° C., 30 minutes; read-out: 5-HT1F BINDING Ki.
On to `Oc1ccc2[nH]cc(C3CCN(CCc4cnn(C5CCCCC5)c4)CC3)c2c1` [Example 51, 5-hydroxy-3-<1-<2-<1-cyclohexyl-1H-pyrazol-4-yl>ethyl>-4-piperidinyl>-1H-indole oxalate], for which the Ki turned out to be 4.4 nM.
On the same count and under the same terms, then `Clc1cccc(-n2cc(CCN3CCC(c4c[nH]c5ccc(Cl)cc45)CC3)cn2)c1` [Example 33, 5-chloro-3-<1-<2-<1-(3-chlorophenyl)-1H-pyrazol-4-yl>ethyl>-4-piperidinyl>- 1H-indole oxalate], with 85.5 nM; and `Fc1ccc2[nH]cc(C3CCN(CCc4cnn(CC5CC5)c4)CC3)c2c1` [Example 20, 5-fluoro-3-<1-<2-<1-cyclopropylmethyl-1H-pyrazol-4-yl>ethyl>-4-piperidinyl>-1H-indole hydrochloride], with 8.9 nM.
On the same count and under the same terms, the value for `Clc1ccc2[nH]cc(C3CCN(CCc4cnn(-c5ccccc5Cl)c4)CC3)c2c1` [Example 32, 5-chloro-3-<1-<2-<1-(2-chlorophenyl)-1H-pyrazol-4-yl>ethyl>-4-piperidinyl>- 1H-indole oxalate] was 44.1 nM.
Same read-out and setting: the value for `Clc1ccc2[nH]cc(C3CCN(CCc4cnn(CC5CC5)c4)CC3)c2c1` [Example 21, 5-chloro-3-<1-<2-<1-cyclopropylmethyl-1H-pyrazol-4-yl>ethyl>-4-piperidinyl>-1H-indole hydrochloride] was 14.5 nM.
Regarding `Fc1ccc2[nH]cc(C3CCN(CCc4cnn(C5CCCCC5)c4)CC3)c2c1` [Example 17, 5-fluoro-3-<1-<2-<1-cyclohexyl-1H-pyrazol-4-yl>ethyl>-4-piperidinyl>-1H-indole oxalate], the Ki came out at 33.2 nM.
Same read-out and setting: then `Clc1ccc2[nH]cc(C3CCN(CCc4cnn(-c5cccc(Br)c5)c4)CC3)c2c1` [Example 36, 5-chloro-3-<1-<2-<1-(3-bromophenyl)-1H-pyrazol-4-yl>ethyl>-4-piperidinyl>-1H-indole oxalate], with 142 nM; and `CCCn1cc(CCN2CCC(c3c[nH]c4ccc(Cl)cc34)CC2)cn1` [Example 14, 5-chloro-3-<1-<2-<1-propyl-1H-pyrazol-4-yl>ethyl>-4-piperidinyl>-1H-indoleoxalate], with 5.7 nM; and `COc1ccc(-n2cc(CCN3CCC(c4c[nH]c5ccc(Cl)cc45)CC3)cn2)cc1` [Example 40, 5-chloro-3-<1-<2-<1-(4-methoxyphenyl)-1H-pyrazol-4-yl>ethyl>-4-piperidinyl>-1H-indole], with 12.7 nM.
On to `CCCn1cc(CCN2CCC(c3c[nH]c4ccc(F)cc34)CC2)cn1` [Example 13, 5-fluoro-3-<1-<2-<1-propyl-1H-pyrazol-4-yl>ethyl>-4-piperidinyl>-1H-indoleoxalate], for which the Ki was 6 nM.
On the same count and under the same terms, then `CC(C)n1cc(CCN2CCC(c3c[nH]c4ccc(O)cc34)CC2)cn1` [Example 50, 5-hydroxy-3-<1-<2-<1-(1-methylethyl)-1H-pyrazol-4-yl>ethyl>-4-piperidinyl>-1H-indole], with 2.3 nM; and `CC(C)n1cc(CCN2CCC(c3c[nH]c4ccc(Cl)cc34)CC2)cn1` [Example 8, 5-chloro-3-<1-<2-<1-(1-methylethyl)-1H-pyrazol-4-yl>ethyl>-4-piperidinyl>-1H-indole], with 4.1 nM; and `Clc1ccc2[nH]cc(C3CCN(CCc4cnn(-c5ccccc5Br)c4)CC3)c2c1` [Example 35, 5-chloro-3-<1-<2-<1-(2-bromophenyl)-1H-pyrazol-4-yl>ethyl>-4-piperidinyl>-1H-indole oxalate], with 48.4 nM.
On the same count and under the same terms, then `Clc1ccc2[nH]cc(C3CCN(CCCc4cn[nH]c4)CC3)c2c1` [Example 54, 5-chloro-3-<1-<3-<1H-pyrazol-4-yl>propyl>-4-piperidinyl>-1H-indole oxalate], with 42 nM; and `CCCn1cc(CCN2CCC(c3c[nH]c4ccc(O)cc34)CC2)cn1` [Example 53, 5-hydroxy-3-<1-<2-<1-propyl-1H-pyrazol-4-yl>ethyl>-4-piperidinyl>-1H-indole], with 1.1 nM; and `Brc1ccc2[nH]cc(C3CCN(CCc4cnn(C5CCCCC5)c4)CC3)c2c1` [Example 19], with 49.4 nM.
On the same count and under the same terms, the value for `Clc1ccc(-n2cc(CCN3CCC(c4c[nH]c5ccc(Cl)cc45)CC3)cn2)cc1` [Example 34, 5-chloro-3-<1-<2-<1-(4-chlorophenyl)-1H-pyrazol-4-yl>ethyl>-4-piperidinyl>- 1H-indole] was 161 nM; that for `COc1ccccc1-n1cc(CCN2CCC(c3c[nH]c4ccc(Cl)cc34)CC2)cn1` [Example 39, 5-chloro-3-<1-<2-<1-(2-methoxyphenyl)-1H-pyrazol-4-yl>ethyl>-4-piperidinyl>-1H-indole oxalate] was 63.5 nM.
On to `CC(C)n1cc(CCN2CCC(c3c[nH]c4ccc(F)cc34)CC2)cn1` [Example 7, 5-fluoro-3-<1-<2-<1-(1-methylethyl)-1H-pyrazol-4-yl>ethyl>-4-piperidinyl>-1H-indole oxalate], for which the inhibitory constant (Ki) is 4.9 nM.
The same measure, in the same setting: then `Fc1ccc2[nH]cc(C3CCN(CCc4cccnc4)CC3)c2c1` [Example 47, 5-fluoro-3-<1-<2-<pyridin-3-yl>ethyl>-4-piperidinyl>-1H-indolehydrochloride monohydrate], with 115 nM; and `CCCn1cc(CCN2CCC(c3c[nH]c4ccccc34)CC2)cn1` [Example 12, 3-<1-<2-<1-propyl-1H-pyrazol-4-yl>ethyl>-4-piperidinyl>-1-H-indole oxalate], with 3.3 nM; and `COc1ccc2[nH]cc(C3CCN(CCc4cnn(C(C)C)c4)CC3)c2c1` [Example 10, 5-methoxy-3-<1-<2-<1-(1-methylethyl)-1H-pyrazol-4-yl>ethyl>-4-piperidinyl>- 1H-indole oxalate], with 6.2 nM.
On the same count and under the same terms, the value for `Fc1ccc2[nH]cc(C3CCN(CCc4cc[nH]c4)CC3)c2c1` [Example 44, 5-fluoro-3-<1-<2-<1H-pyrrol-3-yl>ethyl>-4-piperidinyl>-1H-indole oxalate] was 53.9 nM.
Same read-out and setting: the value for `Fc1ccc(-n2cc(CCN3CCC(c4c[nH]c5ccc(Cl)cc45)CC3)cn2)cc1` [Example 31, 5-chloro-3-<1-<2-<1-(4-fluorophenyl)-1H-pyrazol-4-yl>ethyl>-4-piperidinyl>- 1H-indole oxalate] was 11.5 nM; that for `Fc1ccc2[nH]cc(C3CCN(CCc4ccncc4)CC3)c2c1` [Example 46, 5-fluoro-3-<1-<2-<pyridin-4-yl>ethyl>-4-piperidinyl>-1H-indoledihydrochloride] was 5.3 nM.
Regarding `Clc1ccc2[nH]cc(C3CCN(CCc4cnn(-c5ccccc5)c4)CC3)c2c1` [Example 25, 5-chloro-3-<1-<2-<1-phenyl-1H-pyrazol-4-yl>ethyl>-4-piperidinyl>-1H-indoleoxalate], the Ki was determined as 6.9 nM.
Same read-out and setting: then `Fc1ccc2[nH]cc(C3CCN(CCc4cnn(-c5ccccc5)c4)CC3)c2c1` [Example 24, 5-fluoro-3-<1-<2-<1-phenyl-1H-pyrazol-4-yl>ethyl>-4-piperidinyl>-1H-indoleoxalate], with 5.5 nM.
Still for that read-out and setting: the value for `Cc1ccc(-n2cc(CCN3CCC(c4c[nH]c5ccc(Cl)cc45)CC3)cn2)cc1` [Example 43, 5-chloro-3-<1-<2-<1-(4-methylphenyl)-1H-pyrazol-4-yl>ethyl>-4-piperidinyl>- 1H-indole] was 37.7 nM; that for `Fc1ccc2[nH]cc(C3CCN(CCc4cn[nH]c4)CC3)c2c1` [Example 48, 5-fluoro-3-<1-<2-<1H-pyrazol-4-yl>ethyl>-4-piperidinyl>-1H-indoledihydrochloride] was 8.1 nM.
Same read-out and setting: then `Cc1cccc(-n2cc(CCN3CCC(c4c[nH]c5ccc(Cl)cc45)CC3)cn2)c1` [Example 42, 5-chloro-3-<1-<2-<1-(3-methylphenyl)-1H-pyrazol-4-yl>ethyl>-4-piperidinyl>- 1H-indole oxalate], with 43.2 nM.
Turning to `CC(C)n1cc(CCN2CC=C(c3c[nH]c4ccc(Cl)cc34)CC2)cn1` [Example 55, 5-chloro-3-<1,2,3,6-tetrahydro-1-<2-<1-(1-ethylmethyl)-1H-pyrazol-4-yl>ethyl>-4-pyridinyl>-1H-indole], the Ki worked out at 7.4 nM.
Same read-out and setting: then `Clc1ccc2[nH]cc(C3CCN(CCc4cnn(-c5ccc(I)cc5)c4)CC3)c2c1` [Example 38, 5-chloro-3-<1-<2-<1-(4-iodophenyl)-1H-pyrazol-4-yl>ethyl>-4-piperidinyl>-1H-indole oxalate], with 77.4 nM.
Same read-out and setting: then `Brc1ccc2[nH]cc(C3CCN(CCc4cnn(-c5ccccc5)c4)CC3)c2c1` [Example 26, 5-bromo-3-<1-<2-<1-phenyl-1H-pyrazol-4-yl>ethyl>-4-piperidinyl>-1H-indoleoxalate], with 13.8 nM.
Still for that read-out and setting: then `CCCn1cc(CCN2CCC(c3c[nH]c4ccc(Br)cc34)CC2)cn1` [Example 15, 5-bromo-3-<1-<2-<1-propyl-1H-pyrazol-4-yl>ethyl>-4-piperidinyl>-1H-indoleoxalate], with 6.6 nM; and `Fc1ccc2[nH]cc(C3CCN(CCc4ccccn4)CC3)c2c1` [Example 45, 5-fluoro-3-<1-<2-<pyridin-2-yl>ethyl>-4-piperidinyl>-1H-indoledihydrochloride], with 27 nM.
As to `c1ccc2c(C3CCN(CCc4cnn(C5CCCCC5)c4)CC3)c[nH]c2c1` [Example 16, 3-<1-<2-<1-cyclohexyl-1H-pyrazol-4-yl>ethyl>-4-piperidinyl>-1H-indoleoxalate], the Ki turned out to be 43.8 nM.
Regarding `Clc1ccc2[nH]cc(C3CCN(CCc4cnn(C5CCCCC5)c4)CC3)c2c1` [Example 18], the Ki was found to be 34 nM.

The same assay, now with this note: read-out: 5-HT1F BINDING Ki.
Regarding `CC(C)n1cc(CCN2CCC(c3c[nH]c4ccc(C(N)=O)cc34)CC2)cn1` [Example 11, 5-carboxamido-3-<1-<2-<1-(1-methylethyl)-1H-pyrazol-4-yl>ethyl>-4-piperidinyl>-1H-indole], the Ki was found to be 10.3 nM.
